Reference: patent publication US20220265845A1, “AMINOTHIOLESTER COMPOUNDS AND USES THEREOF” (ADVANCED BIODESIGN, priority 2019, published 2022)

Experiments:
[1] = molecular target: T1, Human recombinant ALDH1A2 (Homo sapiens, UniProt O94788); assay: Kinetic parameters and inhibition type from Kobs versus inhibitor concentration plots; assay type: biochemical; settings: from Kobs versus [I] plots
T1 construct: purchased Creative BioMart, NY, USA
T1 sequence (O94788 1-518): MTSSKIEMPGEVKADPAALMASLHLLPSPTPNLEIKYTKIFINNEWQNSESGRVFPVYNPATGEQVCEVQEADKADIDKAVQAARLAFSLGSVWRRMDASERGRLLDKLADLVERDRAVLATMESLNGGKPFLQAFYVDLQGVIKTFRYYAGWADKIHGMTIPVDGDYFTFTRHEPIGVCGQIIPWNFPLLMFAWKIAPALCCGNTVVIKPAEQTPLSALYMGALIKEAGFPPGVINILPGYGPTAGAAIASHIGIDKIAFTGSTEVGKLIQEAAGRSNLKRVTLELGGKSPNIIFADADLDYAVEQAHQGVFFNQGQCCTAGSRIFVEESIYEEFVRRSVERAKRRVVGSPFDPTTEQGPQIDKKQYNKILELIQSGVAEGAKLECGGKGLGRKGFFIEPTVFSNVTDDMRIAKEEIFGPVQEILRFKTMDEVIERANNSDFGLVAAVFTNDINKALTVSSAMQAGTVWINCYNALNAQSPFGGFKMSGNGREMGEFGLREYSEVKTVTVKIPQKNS
Description: (§1) The kinetic data are expressed as the mean±standard error from three independent determination. Kinact/Ki was determined from Kobs versus concentration of the inhibitor [I] plots. […] The Kobs were obtained from negative exponential fit using non-linear regression program GraFit 5.0 (Erithacus software).
(§2) To determine the inhibition mechanisms of the tested compounds for each isoenzyme, the corresponding Kobs were calculated as mentioned above, plotting product concentration vs time incubation of the enzymes with the test compounds at 300 μM, 200 μM, 100 μM, 50 μM, 20 μM and 10 μM. The kobs were obtained for each concentration of inhibitor tested, from the negative exponential fit using non-linear regression program GraFit 5.0 (Erithacus software). Finally, the kinetic parameter of kinact/KI was determined from the plot of kobs versus the corresponding concentration of inhibitor. The slope of the linear fit of data indicated the rate constant in μM^−1·min^−1.

[2] = molecular target: T2, Human recombinant ALDH3A1 (Homo sapiens, UniProt P30838); assay: as above; assay type: biochemical; settings: for Ki: printed in the Kinact/Ki column in place of Kinact/Ki
T2 sequence (P30838 1-453): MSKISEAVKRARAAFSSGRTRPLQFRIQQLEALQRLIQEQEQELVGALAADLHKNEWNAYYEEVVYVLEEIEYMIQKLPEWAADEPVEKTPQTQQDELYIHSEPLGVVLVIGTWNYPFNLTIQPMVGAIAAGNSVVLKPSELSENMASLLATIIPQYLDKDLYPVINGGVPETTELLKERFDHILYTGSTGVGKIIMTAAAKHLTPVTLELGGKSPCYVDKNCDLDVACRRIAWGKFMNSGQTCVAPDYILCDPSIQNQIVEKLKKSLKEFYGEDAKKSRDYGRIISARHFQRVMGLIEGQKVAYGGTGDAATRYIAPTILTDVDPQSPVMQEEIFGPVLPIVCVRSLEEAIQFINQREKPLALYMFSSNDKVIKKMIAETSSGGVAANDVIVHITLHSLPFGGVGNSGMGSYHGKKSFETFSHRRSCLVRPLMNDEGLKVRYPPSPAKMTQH
Description: as §1, §2

HL-60 = assay: Cell viability assay (Resazurin), cytotoxicity in HL60 cells; assay type: cell-based; settings: Homo sapiens, HL-60, read-out: IC50 at 48 h, 48 hours of incubation
Description: Cell lines. Leukemic cell line, HL-60 (derived from a person with AML-M2), was used for determination of drug efficacy. Cells were obtained from the European Collection of Cell Cultures (ECACC). All cells were cultivated in appropriate media according to supplier recommendations.
Cell Viability assay, 96-well format. Cells were seeded into 96-well cell culture plates at concentrations required to ensure approximately 80% confluence in control (untreated cells) at the end of experiment (0.5×10^4-5×10^4 cell/well).
The sensitivity towards compounds according to the invention was determined using different concentrations of each compound ranging from 0.5 to 100 μM (0.5, 1, 2, 5, 10, 15, 20, 25, 30, 40, 50, 100 μM). Following 48 hours of incubation at 37° C. in a humidified atmosphere containing 5% CO2, the growth-inhibitory effect of compounds was analyzed using Resazurin, according to manufactures instructions.
To ensure good data quality and to minimize impact of pipetting errors, each compounds concentration was assessed based on mean fluorescence intensity from 8 separate wells. Compounds response were quantified by the half maximal inhibitory concentration (IC50) for each particular cell line, and determined by non-linear regression analysis of log-dose/response curves.
Statistical Analysis. Values were expressed as mean±SD or frequencies and proportions. Cell viability curves were determined using four parameter regression line. Differences between groups were determined by unpaired t test, Chi-square, Fisher's exact test or ANOVA, where appropriate. P<0.05 was considered statistically significant. Analysis was performed using GraphPad prism version 5.0 (GraphPad software, San Diego Calif. USA).

[3] = tested on: ALDH class 1 recombinant enzymes; assay: Comparison with DIMATE on ALDH class 1 recombinant enzymes; assay type: biochemical, human; settings: from IC50 of Table 4
Description: Human recombinant ALDH1A1, ALDH1 A2, ALDH1A3, ALDH2 (Creative BioMart, NY, USA) were prepared at 1 mg/mL. The enzymatic reactions were performed using saturating concentrations of substrate. To test the enzymatic activity of the enzymes, 10 μL of enzyme was added into a reaction buffer containing 50 mM HEPES pH 7.2, 30 mM MgCl2, plus 20 mM NAD^+ cofactor and 2 mM Hexanal (Sigma-Aldrich, St. Louis, Mo., USA) in the presence or absence of the different tested compounds. Internal standards were prepared with Nicotinamide adenine dinucleotide reduce form (NADH, 500 μM, Sigma-Aldrich) in Reaction Buffer (50 mM HEPES pH 7.2, 30 mM MgCl2).
Time-dependent inhibition assays were performed for 0-2-5-10-15-20-30-45-60 min at 37° C. in 1 mL-quartz cuvette. The formation of NADH was monitored, reading samples at excitation wavelength=340 nm/emission wavelength=460 nm (fluorescence) for at least 600 sec using Cary Eclipse Varian fluorimeter.
as §1

| Compound | kinact/KI [1] [M⁻¹ s⁻¹] | Ki [2] [µM] | IC50 (HL-60) [µM] | Inhibition of the ALDH class 1 enzymes compared with DIMATE [3] | kinact/KI ([2]; from Kobs versus [I] plots) [M⁻¹ s⁻¹] |
| --- | --- | --- | --- | --- | --- |
| CSC(=O)C#CC(C)(C)N(C)C [DIMATE, S-methyl 4-(dimethylamino)-4-methylpent-2-ynethioate, reference compound] | 85 | 253 | – | – | – |
| CSC(=O)C#CC(C)(C)N(C)CCOCc1ccccc1 [Example 3, S-methyl 4-[2-benzyloxyethyl(methyl)amino]-4-methyl-pent-2-ynethioate] | 1670 | 233 | 1.17 | higher inhibition | – |
| CSC(=O)C#CC(C)(C)N(C)CCOCc1ccc(C)c(C)c1 [Example 5, S-methyl 4-[2-[(3,4-dimethylphenyl)methoxy]ethyl-methyl-amino]-4-methyl-pent-2-ynethioate] | 352 | – | 4.72 | higher inhibition | 5 |
